The values below come from ChEMBL document CHEMBL5030532, “Synthesis and Evaluation of Galloyl Conjugates of Flavanones as BMP-2 Upregulators with Promising Bone Anabolic and Fracture Healing Properties” (J Med Chem, 2021).

The nature of series [1]: Induction of osteogeneis in rat calvarial osteoblast cells assessed as fold upregulation of ALP gene expression at 100 pM measured after 48 hrs by qPCR analysis relative to control. In kind it is functional. For orientation: In qPCR the cycle at which signal appears reflects the starting amount.
Series [2] in a line: Induction of osteogeneis in rat calvarial osteoblast cells assessed as fold upregulation of RUNX2 gene expression at 10 nM measured after 48 hrs by qPCR analysis relative to control. The format is functional.
Series [3] concerns Calvarial osteoblast. Put plainly: Induction of osteoblast differentiation in rat Calvaria osteoblast cells measured assessed as maximal increase in alkaline phosphatase activity incubated for 48 hrs using PNPP as substrate. The format is functional.
Series [4] has as its system Calvarial osteoblast. The experiment in a line: Induction of osteogenesis in rat calvarial osteoblast cells assessed as fold upregulation of BMP-2 gene expression at 10 nM measured after 48 hrs by qPCR analysis relative to control. The format is functional.
Series [5] deals with Calvarial osteoblast. Put plainly: Induction of mineralization in rat Calvarial osteoblast cells measured at 10 nM measured for 14 days by Cetylpyridinium chloride method. The format is functional, tissue-based. As to conditions: time 14.0 day.
The subject of series [6] is Calvarial osteoblast. The experiment in a line: Cytotoxicity against rat Calvarial osteoblast cells assessed as viable cells measured at 0.000001 to 1 uM measure after 48 hrs by cell viability assay. In kind it is cell-based. The conditions noted are these: dose lower 1e-06 µM, dose upper 1 µM.
Series [7] can be described thus: Induction of osteogeneis in rat calvarial osteoblast cells assessed as fold upregulation of Col1 gene expression at 10 nM measured after 48 hrs by qPCR analysis relative to control. In kind it is functional.
Series [8] concerns Calvarial osteoblast. Put plainly: Induction of rat Calvarial osteoblast cell proliferation at 0.000001 to 1 uM measured after 48 hrs by MTT assay. In kind it is functional, tissue-based. As to conditions: dose lower 1e-06 µM, dose upper 1.0 µM.
In series [9] the test system is Calvarial osteoblast. The experiment in a line: Induction of osteogeneis in rat calvarial osteoblast cells assessed as fold upregulation of Col1 gene expression at 1 pM measured after 48 hrs by qPCR analysis relative to control. In kind it is functional.
The nature of series [10]: Induction of osteogeneis in rat calvarial osteoblast cells assessed as fold upregulation of BMP-2 gene expression at 1 pM measured after 48 hrs by qPCR analysis relative to control. The format is functional.
The nature of series [11]: Induction of osteogeneis in rat calvarial osteoblast cells assessed as fold upregulation of RUNX2 gene expression at 1 pM measured after 48 hrs by qPCR analysis relative to control. In kind it is functional.
Series [12] is described as follows: Induction of osteogeneis in rat calvarial osteoblast cells assessed as fold upregulation of ALP gene expression at 1 pM measured after 48 hrs by qPCR analysis relative to control. The format is functional.
Series [13] has as its system Calvarial osteoblast. Put plainly: Induction of mineralization in rat Calvarial osteoblast cells measured at 100 pM measured for 14 days by Cetylpyridinium chloride method. The format is functional, tissue-based. As to conditions: time 14.0 day.
The nature of series [14]: Induction of osteogeneis in rat calvarial osteoblast cells assessed as fold upregulation of Col1 gene expression at 100 pM measured after 48 hrs by qPCR analysis relative to control. The format is functional.
Series [15] is described as follows: Induction of osteogeneis in rat calvarial osteoblast cells assessed as fold upregulation of BMP-2 gene expression at 100 pM measured after 48 hrs by qPCR analysis relative to control. In kind it is functional.
Series [16] relates to Calvarial osteoblast. The experiment in a line: Induction of osteoblast differentiation in rat Calvaria osteoblast cells measured assessed as increase in alkaline phosphatase activity at 10 pM incubated for 48 hrs using PNPP as substrate. In kind it is functional, cell-based.
Series [17] has as its system Calvarial osteoblast. Put plainly: Induction of osteoblast differentiation in rat Calvaria osteoblast cells measured assessed as increase in alkaline phosphatase activity at 1 pM incubated for 48 hrs using PNPP as substrate. In kind it is functional, cell-based.

The structures appear in SMILES notation. Active and inactive are the calls of the source. The calls are words filed in the database; no cut-off is given here.

Consider `COc1cc(C(=O)Nc2ccc3c(c2)C(O)CC(c2cccc(C)c2)O3)cc(OC)c1OC` (stereo not given), for which the “fold change (FC)” value in series [1] was 2.3; in series [2], 1.8; in series [4] it was 1.83; in series [7], 1.55. The ECmax in series [3] turned out to be 100 pM. The outcome in [5] and in series [8] was Active. Moreover, the Activity result in series [6] is “Non-Toxic”.

In the case of `COc1cc(C(=O)Nc2ccc3c(c2)C(=O)CC(c2ccc(C(C)(C)C)cc2)O3)cc(OC)c1OC` (stereo not given), in series [3], the ECmax worked out at 10 pM. Also, in series [9], the result was inactive. Moreover, the “fold change (FC)” value in series [10] came to 1.7; in series [11], 1.9; in series [12], 2.8. Also, the outcome in series [5] was Active. The Activity entry in series [6] was “Non-Toxic”; in [8] it was “Toxic”.

In the case of `COc1cc(C(=O)Nc2ccc3c(c2)C(=O)CC(c2ccccc2)O3)cc(OC)c1OC` (stereo not given), the “fold change (FC)” value in series [1] stood at 1.3; in series [14], 1.8; in series [11] it was 2; in [15], 1.9. For the same compound, the outcome in series [13] was Active. The ECmax in series [3] was found to be 10 pM. The Activity result in [6] is recorded as “Non-Toxic”.

Regarding `COc1cc(C(=O)O)cc(OC)c1OC`, the result in [16] and in series [17] was Active.
